The record followed here is US9708325B2, “Sulfonimidoylpurinone compounds and derivatives for the treatment and prophylaxis of virus infection” (Hoffmann-La Roche Inc., priority 2015, dated 2017).

The nature of one data set: LYSA solubility. In kind it is physicochemical. Conditions: for LYSA: 0.05 M phosphate buffer (pH 6.5); for solubility thermodynamic: 0.05 M phosphate buffer, pH 6.5, aqueous buffer, thermodynamic from solid. On the procedure: LYSA solubility assay is used to determine the aqueous solubility of a compound. Samples were prepared in duplicate from 10 mM DMSO stock solution. […] After one night, the solutions were filtered using a microtiter filter plate. Then the filtrate and its 1/10 dilution were analyzed by HPLC-UV.

A further data set addresses human TLR8 (Homo sapiens (Human), UniProt Q9NR97). The data set can be described thus: HEK-Blue-hTLR8 cells assay and selectivity index. In kind it is cell-based. Conditions: for Selective index: EC50(TLR8) value/EC50(TLR7) value. As to the method: A stable HEK-Blue-hTLR8 cell line was purchased from InvivoGen (Cat.#: HEK-Blue-htlr8, San Diego, Calif., USA). These cells were designed for studying the stimulation of human TLR8 by monitoring the activation of NF-κB. […] Therefore the reporter expression was regulated by the NF-κB promoter upon stimulation of human TLR8 for 20 hrs. The cell culture supernatant SEAP reporter activity was determined using QUANTI-Blue™ kit (Cat.#: rep-qb1, Invivogen, San Diego, Ca, USA) at a wavelength of 640 nm, a detection medium that turns purple or blue in the presence of alkaline phosphatase.
(§1) HEK-Blue-hTLR8 cells were incubated at a density of 250,000˜450,000 cells/mL in a volume of 180 μL in a 96-well plate in Dulbecco's Modified Eagle's medium (DMEM) containing 4.5 g/L glucose, 50 U/mL penicillin, […], […], 2 mM L-glutamine, 10% (V/V) heat-inactivated fetal bovine serum for 24 hrs. Then the HEK-Blue-hTLR8 cells were incubated with addition of 20 μL test compound in a serial dilution in the presence of final DMSO at 1% and perform incubation under 37° C. in a CO2 incubator for 20 hrs. Then 20 μL of the supernatant from each well was incubated with 180 μL Quanti-blue substrate solution at 37° C. for 2 hours and the absorbance was read at 620˜655 nm using a spectrophotometer. The signalling pathway that TLR8 activation leads to downstream NF-κB activation has been widely accepted, and therefore similar reporter assay was also widely used for evaluating TLR8 agonist (Tsuneyasu Kaisho and Takashi Tanaka, Trends in Immunology, Volume 29, Issue 7, July 2008, […]; Hiroaki Hemmi et al, Nature Immunology 3, 196-200 (2002)).
The ratio of TLR8 agonism activity compared to TLR7 agonism activity was defined as the selectivity index (EC50 (TLR8) value/EC50(TLR7) value) and calculated accordingly.

Data set [1] in a line: Single dose PK after 1 mg/kg intravenous dosing to rat. In kind it is in vivo, Male Wister-Han Rats. As to conditions: IV 1 mpk; for concentration at 4 h: read-out: Mean plasma concentration. As to the method: The single dose PK in Male Wister-Han Rats was performed to assess pharmacokinetic properties of tested compounds. Two groups of animals were dosed via bolus intravenous (IV) of the respective compound. Blood samples (approximately 20 μL) were collected via Jugular vein or an alternate site at 5 min, 15 min, 30 min, 1 hr, 2 hr, 4 hr, 7 hr and 24 hr post-dose for IV group. Blood samples were placed into tubes containing EDTA-K2 anticoagulant and centrifuged at 5000 rpm for 6 min at 4° C. to separate plasma from the samples. Following centrifugation, the resulting plasma was transferred to clean tubes for bioanalysis on LC/MS/MS. The pharmacokinetic parameters were calculated using non-compartmental module of WinNonlin® Professional 6.2. […] Therefore, compounds of present invention potentially could lead to less dose frequency and lower dose in clinical application.

The target in another data set is human TLR7 (Homo sapiens (Human), UniProt Q9NYK1). Briefly: HEK-Blue-hTLR7 cells assay (SEAP reporter). In kind it is cell-based. Conditions: 20 hrs, read-out: HEK-Blue-hTLR7 (EC50 (μM)). On the procedure:
A stable HEK-Blue-hTLR7 cell line was purchased from InvivoGen (Cat.#: hkb-htlr7, San Diego, Calif., USA). These cells were designed for studying the stimulation of human TLR7 by monitoring the activation of NF-κB. […] Therefore the reporter expression was regulated by the NF-κB promoter upon stimulation of human TLR7 for 20 hrs. The cell culture supernatant SEAP reporter activity was determined using QUANTI-Blue™ kit (Cat.#: rep-qb1, Invivogen, San Diego, Ca, USA) at a wavelength of 640 nm, a detection medium that turns purple or blue in the presence of alkaline phosphatase.
as §1, with “HEK-Blue-hTLR7 cells” for “HEK-Blue-hTLR8 cells”, “the HEK-Blue-hTLR-7” for “the HEK-Blue-hTLR8”, “2 hrs” for “2 hours”, “that TLR7” for “that TLR8”, “evaluating TLR7” for “evaluating TLR8”

Data set [2] deals with Salmonella typhimurium tester strains (TA1535, TA97, TA98, TA100, and TA102). The data set can be described thus: Ames microsuspension assay. In kind it is cell-based. Conditions: five strains, absence and presence of S9. On the procedure:
The Ames microsuspension assay examines if a compound causes DNA mutations. The method was based on a modified pre-incubation version described by Kado et al (see references: B. N. Ames, J. McCann, E. Yamasaki, Mutation Res. 1975, 31, 347-364 N.Y. Kado, D. Langley, and E. Eisenstadt, Mutation Res. 1983, 121, 25-32). Five Salmonella typhimurium tester strains (TA1535, TA97, TA98, TA100, and TA102) were treated with the test compound in absence and in presence of an exogenous metabolic activation system (S9). The bacteria were pre-incubated for 1 h, the pre-incubation volume is 210 μL (100 μL of overnight culture, 100 μL of S9 mix (10% S9) or 100 μL phosphate buffer, and 10 μL test compound solution). The overnight cultures were resuspended for the test in cold phosphate buffer. The S9 mix contains potassium chloride, magnesium chloride, sodium phosphate buffered saline, NADP^+ and glucose-6-phosphate. The test tubes are incubated and shaken for 60 minutes at 37° C. 2.2 mL soft agar supplemented with L-histidine and biotin was added afterwards and the content of the tubes were mixed and poured on Vogel-Bonner minimal agar plates.
Three replicate plates for the test compound and negative control or two replicate plates for the positive controls were incubated at 37° C., upside down, for 2 days. Colonies were counted electronically using an automatic image analysis system after having inspected the background lawn for signs of toxicity.
S9 is an in vitro metabolic system which is obtained from liver homogenates by centrifuging them at 9000 g for 20 minutes. It contains CYP450 isoforms, phase-II metabolic enzymes, etc. In the Ames microsuspension assay test, S9 is used to assess mutagenicity of compounds, some of which require metabolic activation to become mutagenic.
Criteria of the Ames microsuspension assay: a positive result is defined as a reproducible, dose-related increase in the number of revertant colonies in at least one of the strains. For TA1535 and TA98, the positive threshold is a 2-fold increase over control. For TA97, TA100 and TA102, the threshold is a 1.5-fold increase.

A short description of data set [3]: Metabolic stability in human liver microsomes. Conditions: 1 μM test compound, 0.5 mg/mL microsomal protein; 6.15 mL/min/kg is the limitation of assay sensitivity. On the procedure:
The human microsomal stability assay is used for early assessment of metabolic stability of a test compound in human liver microsomes.
Human liver microsomes (Cat. NO.: 452117, Corning, USA; Cat. NO.: H2610, Xenotech, USA) were preincubated with test compound for 10 minutes at 37° C. in 100 mM potassium phosphate buffer, pH 7.4. The reactions were initiated by adding NADPH regenerating system. The final incubation mixtures contained 1 μM test compound, 0.5 mg/mL liver microsomal protein, 1 mM MgCL2, 1 mM NADP, 1 unit/mL isocitric dehydrogenase and 6 mM isocitric acid in 100 mM potassium phosphate buffer, pH 7.4. After incubation times of 0, 3, 6, 9, 15 and 30 minutes at 37° C., 300 μL of cold ACN (including internal standard) was added to 100 μL incubation mixture to terminate the reaction. Following precipitation and centrifugation, the amount of compound remaining in the samples were determined by LC-MS/MS. Controls of no NADPH regenerating system at zero and 30 minutes were also prepared and analyzed.

The next data set addresses hERG channel (Homo sapiens (Human), UniProt Q12809). Briefly: hERG channel inhibition assay (patch-clamp, CHOhERG cells). Type of data set: cell-based. On the procedure: The hERG K^+ channels were cloned in humans and stably expressed in a CHO (Chinese hamster ovary) cell line. CHOhERG cells were used for patch-clamp (voltage-clamp, whole-cell) experiments. Cells were stimulated by a voltage pattern to activate hERG channels and conduct IKhERG currents (rapid delayed outward rectifier potassium current of the hERG channel). […] Thereafter, the test compound was added to the preparation at increasing concentrations. For each concentration, an attempt was made to reach a steady-state effect, usually, this was achieved within 3-10 min at which time the next highest concentration was applied. The amplitude and kinetics of IKhERG are recorded in each concentration of the drug which were compared to the control values (taken as 100%). (references: Redfern W S, Carlsson L, Davis A S, Lynch W G, MacKenzie I, Palethorpe S, Siegl P K, Strang I, Sullivan A T, Wallis R, Camm A J, Hammond T G. 2003; Relationships between preclinical cardiac electrophysiology, clinical QT interval prolongation and torsade de pointes for a broad range of drugs: evidence for a provisional safety margin in drug development. Cardiovasc. Res. 58:32-45, Sanguinetti M C, Tristani-Firouzi M. 2006; hERG potassium channels and cardiac arrhythmia. Nature 440:463-469, Webster R, Leishman D, Walker D. 2002; Towards a drug concentration effect relationship for QT prolongation and torsades de pointes. Curr. Opin. Drug Discov. Devel. 5:116-26).

In brackets after ≈: the same amount, converted by molar mass. Like-named read-outs stand apart in the source and are kept apart here. A value given as a limit tells only on which side of the number the result lay.

Chain of human TLR8 (Q9NR97 27-1041): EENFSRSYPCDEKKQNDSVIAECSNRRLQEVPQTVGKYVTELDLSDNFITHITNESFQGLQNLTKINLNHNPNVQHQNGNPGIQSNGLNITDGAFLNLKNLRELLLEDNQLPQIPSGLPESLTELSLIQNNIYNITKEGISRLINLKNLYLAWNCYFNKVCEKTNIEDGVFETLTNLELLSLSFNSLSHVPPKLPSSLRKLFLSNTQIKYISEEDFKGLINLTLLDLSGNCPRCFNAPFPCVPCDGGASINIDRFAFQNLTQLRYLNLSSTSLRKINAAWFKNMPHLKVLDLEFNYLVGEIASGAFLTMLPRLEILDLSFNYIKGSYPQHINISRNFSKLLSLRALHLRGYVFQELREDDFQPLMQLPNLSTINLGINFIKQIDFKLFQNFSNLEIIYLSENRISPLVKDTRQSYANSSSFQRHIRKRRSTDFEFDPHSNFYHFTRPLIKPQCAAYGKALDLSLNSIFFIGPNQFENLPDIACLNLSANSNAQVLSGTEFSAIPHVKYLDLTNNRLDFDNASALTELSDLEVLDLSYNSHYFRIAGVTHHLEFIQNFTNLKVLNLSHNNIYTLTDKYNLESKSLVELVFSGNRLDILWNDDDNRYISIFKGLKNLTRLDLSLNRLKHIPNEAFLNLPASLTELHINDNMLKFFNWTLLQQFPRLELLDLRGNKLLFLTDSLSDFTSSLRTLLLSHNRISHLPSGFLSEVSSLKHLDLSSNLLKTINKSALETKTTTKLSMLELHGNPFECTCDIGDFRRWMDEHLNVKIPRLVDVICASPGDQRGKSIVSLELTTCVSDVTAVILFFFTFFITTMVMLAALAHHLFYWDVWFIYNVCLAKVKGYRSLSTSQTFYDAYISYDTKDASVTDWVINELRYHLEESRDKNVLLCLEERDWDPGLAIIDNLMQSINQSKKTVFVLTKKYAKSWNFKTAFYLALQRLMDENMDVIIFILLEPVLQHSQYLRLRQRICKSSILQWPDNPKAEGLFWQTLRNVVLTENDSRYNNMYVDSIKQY
Chain of hERG channel (Q12809 whole entry): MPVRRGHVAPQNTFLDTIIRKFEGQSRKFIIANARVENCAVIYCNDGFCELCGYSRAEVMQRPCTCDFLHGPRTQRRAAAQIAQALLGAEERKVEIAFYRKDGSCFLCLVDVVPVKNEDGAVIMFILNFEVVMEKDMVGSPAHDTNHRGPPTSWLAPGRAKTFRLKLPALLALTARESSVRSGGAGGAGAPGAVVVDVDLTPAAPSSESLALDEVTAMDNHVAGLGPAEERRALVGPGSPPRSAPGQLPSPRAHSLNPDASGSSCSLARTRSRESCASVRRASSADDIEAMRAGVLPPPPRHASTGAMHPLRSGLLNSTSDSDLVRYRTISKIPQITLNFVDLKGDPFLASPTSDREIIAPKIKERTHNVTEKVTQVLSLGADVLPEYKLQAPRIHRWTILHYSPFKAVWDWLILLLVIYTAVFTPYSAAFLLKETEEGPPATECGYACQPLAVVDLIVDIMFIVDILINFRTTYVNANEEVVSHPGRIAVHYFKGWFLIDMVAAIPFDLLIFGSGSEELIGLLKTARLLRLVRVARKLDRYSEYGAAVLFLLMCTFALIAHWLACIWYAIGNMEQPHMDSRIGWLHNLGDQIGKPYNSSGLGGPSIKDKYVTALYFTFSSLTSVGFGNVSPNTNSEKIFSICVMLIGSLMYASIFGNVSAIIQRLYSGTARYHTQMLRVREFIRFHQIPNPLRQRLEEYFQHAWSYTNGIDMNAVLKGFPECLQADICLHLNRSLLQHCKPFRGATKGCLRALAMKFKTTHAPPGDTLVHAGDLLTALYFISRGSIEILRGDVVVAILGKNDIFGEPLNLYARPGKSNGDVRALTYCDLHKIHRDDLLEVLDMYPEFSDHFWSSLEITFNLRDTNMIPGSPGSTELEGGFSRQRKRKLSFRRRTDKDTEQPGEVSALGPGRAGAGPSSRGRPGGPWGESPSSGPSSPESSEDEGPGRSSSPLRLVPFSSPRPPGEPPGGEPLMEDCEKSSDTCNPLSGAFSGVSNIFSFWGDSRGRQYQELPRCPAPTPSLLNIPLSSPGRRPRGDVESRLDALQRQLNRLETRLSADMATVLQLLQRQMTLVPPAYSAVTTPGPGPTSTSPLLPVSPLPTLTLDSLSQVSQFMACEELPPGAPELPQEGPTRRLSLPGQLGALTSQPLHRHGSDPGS
Chain of human TLR7 (Q9NYK1 27-1049): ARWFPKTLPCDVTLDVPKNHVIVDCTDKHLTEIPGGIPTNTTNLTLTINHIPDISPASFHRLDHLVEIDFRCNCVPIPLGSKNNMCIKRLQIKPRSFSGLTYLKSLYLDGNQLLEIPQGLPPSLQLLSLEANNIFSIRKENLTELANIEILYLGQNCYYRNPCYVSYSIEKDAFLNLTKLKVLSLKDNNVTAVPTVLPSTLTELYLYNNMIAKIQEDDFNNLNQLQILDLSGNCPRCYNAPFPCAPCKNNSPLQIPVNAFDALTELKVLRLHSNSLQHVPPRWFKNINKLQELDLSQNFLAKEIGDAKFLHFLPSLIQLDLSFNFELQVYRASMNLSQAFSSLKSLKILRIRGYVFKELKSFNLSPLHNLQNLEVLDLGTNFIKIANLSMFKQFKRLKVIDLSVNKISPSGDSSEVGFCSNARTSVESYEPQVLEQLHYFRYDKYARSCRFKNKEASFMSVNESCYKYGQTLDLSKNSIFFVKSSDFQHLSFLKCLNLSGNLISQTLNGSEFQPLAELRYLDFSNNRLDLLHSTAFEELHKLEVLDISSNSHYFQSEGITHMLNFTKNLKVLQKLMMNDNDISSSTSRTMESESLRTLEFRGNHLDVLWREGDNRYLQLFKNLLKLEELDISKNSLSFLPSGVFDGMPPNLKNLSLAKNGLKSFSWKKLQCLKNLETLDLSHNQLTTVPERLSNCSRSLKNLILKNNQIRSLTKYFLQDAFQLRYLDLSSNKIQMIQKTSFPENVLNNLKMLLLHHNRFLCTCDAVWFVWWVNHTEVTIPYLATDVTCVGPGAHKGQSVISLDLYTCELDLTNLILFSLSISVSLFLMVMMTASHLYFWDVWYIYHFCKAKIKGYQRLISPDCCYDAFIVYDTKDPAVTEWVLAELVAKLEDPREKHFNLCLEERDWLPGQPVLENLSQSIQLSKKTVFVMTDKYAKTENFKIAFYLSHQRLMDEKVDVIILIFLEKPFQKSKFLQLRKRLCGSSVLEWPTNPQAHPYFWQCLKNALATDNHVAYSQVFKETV

As usually defined, the EC50 is the concentration at which the effect is half-maximal. For the compound `CS(=O)(=O)c1nc(N)c2[nH]c(=O)n(Cc3ccccc3)c2n1` [Example S-1, reference compound], in “LYSA solubility”, the “LYSA” value amounted to 0.5 µg/mL. Besides, the Selective index on human TLR8 is reported as above 2703. The EC50 is above 1000 µM on human TLR8 (HEK-Blue-hTLR8 cells, SEAP reporter, 20 hrs, read-out: HEK Blue hTLR-8 EC50) and 0.37 µM at human TLR7. Besides, the “AUC0-inf” value in data set [1] amounted to 201 nM·h. Also, in data set [1], the “CL” value amounted to 15.7 L/h/kg. In addition, the “CO” value in data set [1] is reported as 534 nM. The concentration at 4 h in data set [1] (0.083 h) amounted to 0.534 µM; in data set [1] (0.25 h), 0.236 µM; in data set [1] (0.5 h), 0.125 µM; in data set [1] (1 h), 0.038 µM; in data set [1] (2 h), 0.009 µM.

What is called thermodynamic solubility is the concentration in solution at equilibrium with solid. As for `CS(=N)(=O)c1nc(N)c2[nH]c(=O)n(Cc3ccccc3)c2n1` (single isomer, unassigned) [Example 1-B, 6-Amino-9-benzyl-2-(methylsulfonimidoyl)-7H-purin-8-one], the Ames result in data set [2] was “negative”. The compound further showed a thermodynamic solubility in the data set “LYSA solubility” of 0.098 mg/mL (≈ 308 µM). Besides, the “Human Liver Microsome Clearance” value in data set [3] was below 0.369 L/h/kg.

The term IC20 denotes the point of the concentration-response curve where the effect stands at 20%. As to `CCCS(=N)(=O)c1nc(N)c2[nH]c(=O)n(Cc3ccc(C)cc3)c2n1` (single isomer, unassigned) [Example 29-B, 6-Amino-2-(propylsulfonimidoyl)-9-(p-tolylmethyl)-7H-purin-8-one], the Ames result in data set [2] is reported as “negative”. Moreover, the “LYSA” value in the data set “LYSA solubility” was 11 µg/mL. For the same compound, the “Safety ratio (hERG IC20/EC50)” value at hERG channel (hERG IC20/EC50) is recorded as above 546. For the same compound, the 20% effect concentration (IC20) at hERG channel (read-out: hERG IC20) is above 10 µM.

For the compound `CCS(=N)(=O)c1nc(N)c2[nH]c(=O)n(Cc3ccc(Cl)cc3)c2n1` (centres unmarked) [Example 70, 6-Amino-9-[(4-chlorophenyl)methyl]-2-(ethylsulfonimidoyl)-7H-purin-8-one], in “LYSA solubility”, the solubility (thermodynamic) came to 0.007 mg/mL (≈ 19.1 µM). On human TLR8, this compound displayed a concentration for a half-maximal effect (EC50) of 90 µM and a Selective index of 1579. Further, at human TLR7, the EC50 was 0.057 µM.
